In test [1] the target is T1, ICl,SWELL (SWELL1-LRRC8 channel) in HEK-293 cells (Homo sapiens, UniProt Q8IWT6).
T1 construct: applied when the endogenous HEK-293 cell ICl,SWELL current density reached 30 pA/pF; endogenous in cells; host or cells: HEK-293 (ATCC, #CRL-1573)
T1 sequence (Q8IWT6 1-810): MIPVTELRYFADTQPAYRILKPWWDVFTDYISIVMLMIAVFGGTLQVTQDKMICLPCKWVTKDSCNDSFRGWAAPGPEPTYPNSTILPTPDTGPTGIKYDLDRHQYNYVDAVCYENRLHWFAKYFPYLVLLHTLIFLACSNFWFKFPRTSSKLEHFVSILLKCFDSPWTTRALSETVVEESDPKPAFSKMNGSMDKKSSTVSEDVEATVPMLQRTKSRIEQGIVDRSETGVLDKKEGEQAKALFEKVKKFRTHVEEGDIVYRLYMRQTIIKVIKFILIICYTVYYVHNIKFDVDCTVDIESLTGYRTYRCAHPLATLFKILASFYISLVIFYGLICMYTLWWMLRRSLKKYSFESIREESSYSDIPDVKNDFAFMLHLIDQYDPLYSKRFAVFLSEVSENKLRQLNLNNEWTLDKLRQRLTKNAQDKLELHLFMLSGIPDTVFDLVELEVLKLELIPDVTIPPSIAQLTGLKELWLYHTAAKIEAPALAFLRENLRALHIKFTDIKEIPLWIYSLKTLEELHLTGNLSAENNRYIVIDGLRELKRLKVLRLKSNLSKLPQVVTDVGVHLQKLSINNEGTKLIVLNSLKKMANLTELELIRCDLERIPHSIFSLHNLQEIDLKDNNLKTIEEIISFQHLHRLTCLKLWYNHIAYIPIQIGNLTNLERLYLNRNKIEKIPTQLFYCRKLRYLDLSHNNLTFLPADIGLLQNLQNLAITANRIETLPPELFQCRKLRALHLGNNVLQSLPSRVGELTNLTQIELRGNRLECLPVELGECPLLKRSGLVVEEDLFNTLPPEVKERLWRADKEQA
In words: ICl,SWELL inhibition after hypotonic activation (open channel), patch-clamp. The class given is cell-based. Particulars: for inhibition of channels first opened by hypotonic activation: 1 μM. The procedure: Patch-clamp recordings of β-cells, 3T3-F442A adipocytes, and mature human adipocytes were performed as described previously[24],[28]. Briefly, all patch-clamp experiments were conducted at room temperature using either an Axopatch 200B amplifier or a MultiClamp 700B amplifier paired to a Digidata 1550 digitizer. Data were acquired using pClamp 10.4 software. For hypotonic swelling, extracellular solution consisted of the following (in mM): 90 NaCl, 2 CsCl, 1 MgCl2, 1 CaCl2, 10 HEPES, 10 mannitol, pH 7.4 with NaOH (210 mOsm/kg). The isotonic extracellular solution consisted of the same composition above but with 110 mM instead of 10 mM mannitol (300 mOsm/kg). The swell-activated current was elicited by perfusing cells with a hypotonic solution (210 mOsm/kg). […] For perforated-patch recordings in isolated human adipocytes, the intracellular solution was as above but without ATP and GTP, and contained 360 μg/ml Amphotericin B (Sigma). The holding potential was 0 mV. Voltage ramps from −100 to +100 mV (at 0.4 mV/ms) were applied every 4 s. The sampling interval was 100 μs and filtered at 10 kHz. For perforated-patch recordings, cells with a membrane resistance below 1 GΩ or access resistance above 20 MΩ were discarded. […]
A general note: The patch-clamp technique gives a direct electrical read-out from membranes.

Test [2] concerns T2, SWELL1-LRRC8 channels in the closed state, HEK-293 cells.
T2 construct: applied when the endogenous HEK-293 cell ICl,SWELL current density reached 30 pA/pF; endogenous in cells; host or cells: HEK-293 (ATCC, #CRL-1573)
In words: ICl,SWELL inhibition on preincubation before hypotonic activation (closed channel), patch-clamp. Particulars: 1 μM applied 30 min prior to hypotonic activation, vs vehicle or Inactive compounds. The class given is cell-based.

For test [3], the system named is endogenous SWELL1 in 3T3-F442A preadipocytes. Put plainly: SWELL1 plasma membrane localization, immunofluorescence. Particulars: 1 or 10 µM, 48 h, vs vehicle or Inactive 1. The class given is cell-based, murine. The procedure: 3T3-F442A preadipocytes (WT, KO) and differentiated adipocytes without or with SWELL1 overexpression (WT + SWELL1 O/E, KO + SWELL1 O/E) were prepared as described in the Cell culture section on collagen-coated coverslips. […] The cells were fixed in ice-cold acetone for 15 min at −20 °C and then washed four times with 1XPBS. […] Either anti-SWELL1 (1:400) or anti-Flag (1:1500, Sigma #F3165) antibody was added to the cells and incubated overnight at 4 °C. The cells were then washed three times (1XPBS) prior to and after the addition of 1:1000 Alexa Fluor 488/568 secondary antibody (anti-rabbit, #A11034 or anti-mouse, #A11004) for 1 h at RT. Cells were counterstained with nuclear TO-PRO-3 (Life Technologies, #T3605) or DAPI (Invitrogen, #D1306) staining (1 µM) for 20 min followed by three washes with 1XPBS. Coverslips were further mounted on slides with ProLong Diamond anti-fading media. All images were captured using Zeiss LSM700/LSM510 confocal microscope with 63X objective (NA 1.4). SWELL1 membrane localization was quantified by stacking all the z-images and converting it into a binary image where the cytoplasmic intensity per unit area was subtracted from the total cell intensity per unit area using ImageJ software.

Test [4] has as its system T3, SWELL1 protein in 3T3-F442A adipocytes.
T3 construct: host or cells: 3T3-F442A preadipocytes and differentiated adipocytes (wild type)
In words: SWELL1 protein under glucolipotoxic stress (palmitate + glucose). The following applies: 10 µM 96 h pretreatment, then 1 mM palmitate + 25 mM glucose 16 h. The class given is cell-based, murine. Here is the method: In the case of 3T3-F442A adipocytes, the WT and KO cells were treated with either vehicle (DMSO), 1 or 10 µM SN-40X (after 7–11 days of differentiation) for 96 h and then stimulated with 0 and 10 nM insulin/serum-containing media with vehicle (DMSO) or SN-40X for 15 min for SWELL1 detection. […] To simulate glucolipotoxicity, 8 mM sodium palmitate was dissolved in 18.4% fatty-acid free BSA at 37 °C in DMEM medium with 25 mM glucose to obtain a conjugation ratio of 1:3 palmitate:BSA[80].

Test [5] deals with pancreatic islets of T2D mice. Put plainly: Insulin secretion of treated T2D mice (serum insulin, islet perifusion GSIS). The class given is in vivo, mouse. The procedure:
Mice were fasted for 6 h prior to glucose tolerance tests (GTT). Baseline glucose levels at 0 min timepoint (fasting glucose, FG) were measured from a blood sample collected from tail snipping using glucometer (Bayer Healthcare LLC). Either 1 or 0.75 g D-Glucose/kg body weight were injected (i.p.) for lean or HFD mice, respectively and glucose levels were measured at 5 or 7, 15, 30, 60, 90, and 120 min timepoints after injection. For insulin tolerance tests (ITTs), the mice were fasted for 4 h. Similar to GTTs, the baseline blood glucose levels were measured at 0 min timepoint and 15, 30, 60, 90, and 120 min timepoints post-injection (i.p.) of insulin (HumulinR, 1 U/kg bodyweight for lean mice or 1.25 U/kg body weight for HFD mice). […] The collected plasma was then measured for insulin content by using Ultra-Sensitive Mouse Insulin ELISA Kit (Crystal Chem, #90080). All mouse studies were performed in a blinded fashion.

The mark [6] stands for this setting: HEK-293 cells, hypotonic (210 mOsm) stimulation, outward current, compound applied at 30 pA/pF, read-out: IC50 for ICl,SWELL inhibition.

Broadly, the IC50 is the point on the concentration scale where inhibition reaches its midpoint.

Structures are written as SMILES. Read-outs that look alike come from different tables or passages of the source.

For the compound `CCCCC1(C2CCCC2)Cc2cc(OCC(=O)O)c(Cl)c(Cl)c2C1=O` (stereo not shown) [Inactive 1, 2-((2-butyl-6,7-dichloro-2-cyclopentyl-1-oxo-2,3-dihydro-1H-inden-5-yl)oxy)acetic acid], the IC50 in test [1] (setting [6]) amounted to 35.5 µM.
For `CCCCC1(C2CCCC2)Cc2cc(OCCCC(=O)O)c(Cl)c(Cl)c2C1=O` (stereo not shown) [SN-401, 4-((2-butyl-6,7-dichloro-2-cyclopentyl-1-oxo-2,3-dihydro-1H-inden-5-yl)oxy)butanoic acid], in test [1], the IC50 came to 3.9 µM and the “inhibition of channels first opened by hypotonic activation” value is “relatively ineffective”. Besides, the “concentrations required to effectively inhibit channels when first opened by hypotonic activation” value in test [1] (HEK-293 cells) fell in the range of 6 to 10 µM. Besides, in test [2], the “subsequent hypotonic activation of ICl,SWELL” value was “markedly suppressed and delayed”. In addition, the “plasma membrane (PM) localization of endogenous SWELL1” value in test [3] is recorded as “enhanced”. In addition, the “prevention of palmitate/glucose-induced reduction of SWELL1 protein” value in test [4] is “entirely prevented”. In addition, the “impaired GSIS (serum insulin, islet perifusion)” value in test [5] (HFD mice, 21 weeks HFD) is recorded as “significantly improved”.
For the compound `CCCCC1(C2CCCC2)Cc2cc(OCCCCCC(=O)O)c(Cl)c(Cl)c2C1=O` (stereo not shown) [SN-406, 6-((2-butyl-6,7-dichloro-2-cyclopentyl-1-oxo-2,3-dihydro-1H-inden-5-yl)oxy)hexanoic acid], the “inhibition of channels first opened by hypotonic activation” value in test [1] is recorded as “relatively ineffective”. In addition, in test [1] (HEK-293 cells), the “ICl,SWELL inhibitory activity compared to SN-401” value is reported as “increased ICl,SWELL inhibitory activity” and the “concentrations required to effectively inhibit channels when first opened by hypotonic activation” value is 6 to 10 µM. Further, in test [1] (setting [6]), the IC50 is 3.1 µM. Moreover, the “subsequent hypotonic activation of ICl,SWELL” value in test [2] was “markedly suppressed and delayed”. Also, the “plasma membrane (PM) localization of endogenous SWELL1” value in test [3] is “enhanced”. Further, the “prevention of palmitate/glucose-induced reduction of SWELL1 protein” value in test [4] is listed as “entirely prevented”. The “insulin secretion in perifusion GSIS” value in test [5] (islets of HFD-T2D mice, compared to Inactive 1) is on record as “significantly augmented”.

Source of the values: paper PMC8831520, “Small molecule SWELL1 complex induction improves glycemic control and nonalcoholic fatty liver disease in murine Type 2 diabetes” (Nature Communications, 2022).
